Laboratory results from patent publication US20250230193A1, “CYCLIC COMPOUND HAVING SELECTIVE KRAS INHIBITORY EFFECT ON HRAS AND NRAS” (CHUGAI SEIYAKU KABUSHIKI KAISHA, priority 2022, published 2025).
Where a SMILES comes first, the peptide text is derived from it. Bridges are numbered along the chain shown (N, C = ends). [ ]: non-standard residue; d: D form. The star is where a group is joined. hPhe(3,5-F2-4-CF3) = N[C@@H](CCc1cc(F)c(C(F)(F)F)c(F)c1)C(=O)O; hPhe(3-Cl-4-CF3) = N[C@@H](CCc1ccc(C(F)(F)F)c(Cl)c1)C(=O)O; NPrPhe(4-CF3) = CCCN[C@@H](Cc1ccc(C(F)(F)F)cc1)C(=O)O; NEtPhe(4-Me) = CCN[C@@H](Cc1ccc(C)cc1)C(=O)O; NMeGly(cPent) = CN[C@H](C(=O)O)C1CCCC1; Hyp = O=C(O)[C@@H]1C[C@@H](O)CN1; NMeI = CC[C@H](C)[C@H](NC)C(=O)O; NMeD = CN[C@@H](CC(=O)O)C(=O)O; NMeL = CN[C@@H](CC(C)C)C(=O)O; Morpholide = C1CN(*)CCO1; NMeA = CN[C@@H](C)C(=O)O; Ac5c = NC1(C(=O)O)CCCC1; Aze = O=C(O)[C@@H]1CCN1; Ac4c = NC1(C(=O)O)CCC1; Aib = CC(C)(N)C(=O)O; Sar = CNCC(=O)O

Columns and labels:
[1] = target: GDP-bound NRAS wild-type protein (Homo sapiens, UniProt P01111); test: Binding to NRAS by surface plasmon resonance (SPR), Single Cycle Kinetics; conditions: SPR; for NRAS/KRAS (ratio of KD value with respect to NRAS to KD value with respect to KRAS): GDP-bound NRAS wild-type vs GDP-bound KRAS wild-type
Chain of GDP-bound NRAS wild-type protein (P01111 whole entry): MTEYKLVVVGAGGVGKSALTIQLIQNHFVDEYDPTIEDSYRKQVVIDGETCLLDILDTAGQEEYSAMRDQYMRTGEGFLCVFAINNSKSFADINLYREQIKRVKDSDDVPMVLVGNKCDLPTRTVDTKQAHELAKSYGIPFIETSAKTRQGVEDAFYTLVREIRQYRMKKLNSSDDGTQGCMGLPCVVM

[2] = target: GDP-bound HRAS wild-type protein (Homo sapiens, UniProt P01112); test: Binding to HRAS by surface plasmon resonance (SPR), Single Cycle Kinetics; conditions: SPR; for HRAS/KRAS (ratio of KD value with respect to HRAS to KD value with respect to KRAS): GDP-bound HRAS wild-type vs GDP-bound KRAS wild-type
Chain of GDP-bound HRAS wild-type protein (P01112 whole entry): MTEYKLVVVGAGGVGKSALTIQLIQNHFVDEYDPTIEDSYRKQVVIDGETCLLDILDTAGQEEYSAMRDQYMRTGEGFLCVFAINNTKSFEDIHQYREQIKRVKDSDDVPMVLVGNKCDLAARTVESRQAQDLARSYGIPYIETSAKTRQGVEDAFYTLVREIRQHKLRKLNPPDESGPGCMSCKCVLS

Row | SMILES | NRAS/KRAS (ratio of KD for GDP-bound NRAS wild-type to KD for KRAS) ([1]; KD ratio NRAS/KRAS) | HRAS/KRAS (ratio of KD for GDP-bound HRAS wild-type to KD for KRAS) ([2]; KD ratio HRAS/KRAS) | further results
1 | CCCN1C(=O)CN(C)C(=O)CNC(=O)[C@H]([C@@H](C)CC)NC(=O)[C@H](CC(C)C)N(C)C(=O)C[C@@H](C(=O)N(C)C)NC(=O)[C@H](C2CCCC2)N(C)C(=O)C2(CCCC2)NC(=O)[C@@H]2C[C@@H](OCC)CN2C(=O)[C@H](CCc2ccc(C(F)(F)F)c(Cl)c2)NC(=O)CN(C)C(=O)[C@@H]1Cc1ccc(C(F)(F)F)cc1 [PP0365] ([NMeL]IG[Sar][NPrPhe(4-CF3)][Sar][hPhe(3-Cl-4-CF3)][Hyp](Et)[Ac5c][NMeGly(cPent)]D-NMe2; lactam N-11) | B (a compound having 3 or more and less than 10 is denoted as B) | B (a compound having 3 or more and less than 10 is denoted as B) | –
2 | CC[C@H](C)[C@@H]1NC(=O)[C@H](CC(C)C)N(C)C(=O)C[C@@H](C(=O)N2CCOCC2)N(C)C(=O)[C@H]([C@@H](C)CC)N(C)C(=O)C2(CCCC2)NC(=O)[C@@H]2CCCN2C(=O)[C@H](CCc2ccc(C(F)(F)F)c(Cl)c2)NC(=O)CN(C)C(=O)[C@H](Cc2ccc(C)cc2)N(CC)C(=O)CN(C)C(=O)CN(C)C1=O [PP0043] ([NMeL]I[Sar][Sar][NEtPhe(4-Me)][Sar][hPhe(3-Cl-4-CF3)]P[Ac5c][NMeI][NMeD]-Morpholide; lactam N-11) | C (A compound having a KD ratio of 0.1 or more and less than 3 is denoted as C) | C (A compound having a KD ratio of 0.1 or more and less than 3 is denoted as C) | –
3 | CCCN1C(=O)CN(C)C(=O)CN(C)C(=O)[C@H]([C@@H](C)CC)NC(=O)[C@H](CC(C)C)N(C)C(=O)C[C@@H](C(=O)N(C)C)N(C)C(=O)[C@H](C2CCCC2)N(C)C(=O)C2(CCCC2)NC(=O)[C@@H]2CCCN2C(=O)[C@H](CCc2cc(F)c(C(F)(F)F)c(F)c2)NC(=O)CN(C)C(=O)[C@@H]1Cc1ccc(C(F)(F)F)cc1 [PP0788] ([NMeL]I[Sar][Sar][NPrPhe(4-CF3)][Sar][hPhe(3,5-F2-4-CF3)]P[Ac5c][NMeGly(cPent)][NMeD]-NMe2; lactam N-11) | – | – | NRAS/KRAS (ratio of KD value with respect to GDP-bound NRAS wild-type protein to KD value with respect to KRAS) ([1]; KD ratio NRAS/KRAS): B (a compound having 3 or more and less than 10 is denoted as B); HRAS/KRAS (ratio of KD value with respect to GDP-bound HRAS wild-type protein to KD value with respect to KRAS) ([2]; KD ratio HRAS/KRAS): C (A compound having a KD ratio of 0.1 or more and less than 3 is denoted as C)
4 | CCCN1C(=O)CN(C)C(=O)CNC(=O)[C@H]([C@@H](C)CC)NC(=O)[C@H](CC(C)C)N(C)C(=O)C[C@@H](C(=O)N2CCOCC2)NC(=O)[C@H](C2CCCC2)N(C)C(=O)C2(CCC2)NC(=O)[C@@H]2C[C@@H](OCC)CN2C(=O)[C@H](CCc2ccc(C(F)(F)F)c(Cl)c2)NC(=O)CN(C)C(=O)[C@@H]1Cc1ccc(C(F)(F)F)cc1 [PP0330] ([NMeL]IG[Sar][NPrPhe(4-CF3)][Sar][hPhe(3-Cl-4-CF3)][Hyp](Et)[Ac4c][NMeGly(cPent)]D-Morpholide; lactam N-11) | B (a compound having 3 or more and less than 10 is denoted as B) | C (A compound having a KD ratio of 0.1 or more and less than 3 is denoted as C) | –
5 | CCO[C@@H]1C[C@H]2C(=O)NC3(CCC3)C(=O)N(C)[C@@H](C3CCCC3)C(=O)N(C)[C@H](C(=O)N3CCOCC3)CC(=O)N(C)[C@@H](CC(C)C)C(=O)N[C@@H]([C@@H](C)CC)C(=O)N(C)CC(=O)N(C)[C@H]3C/C=C\CCN(C3=O)[C@@H](Cc3ccc(C(F)(F)F)cc3)C(=O)N(C)CC(=O)N[C@@H](CCc3ccc(C(F)(F)F)c(Cl)c3)C(=O)N2C1 [PP0825] | – | – | NRAS/KRAS (ratio of KD value with respect to NRAS to KD value with respect to KRAS) ([1]; KD ratio): A (a compound having 10 or more and less than 20 is denoted as A); HRAS/KRAS (ratio of KD value with respect to HRAS to KD value with respect to KRAS) ([2]; KD ratio): A (a compound having 10 or more and less than 20 is denoted as A)
6 | CCCN(C)C(=O)[C@@H]1CC(=O)N(C)[C@@H](C2CC2)C(=O)N[C@@H]([C@@H](C)CC)C(=O)N(C)CC(=O)N(C)[C@H]2C/C=C\CCN(C2=O)[C@@H](Cc2ccc(C(F)(F)F)cc2)C(=O)N(C)CC(=O)N[C@@H](CCc2cc(F)c(C(F)(F)F)c(F)c2)C(=O)N2C[C@@H](C)C[C@H]2C(=O)NC2(CCC2)C(=O)N(C)[C@@H](C2CCCC2)C(=O)N1C [PP2081] | – | – | NRAS/KRAS (ratio of KD value with respect to NRAS to KD value with respect to KRAS) [1]: A (a compound having 10 or more and less than 20 is denoted as A); HRAS/KRAS (ratio of KD value with respect to HRAS to KD value with respect to KRAS) [2]: A (a compound having 10 or more and less than 20 is denoted as A)
7 | CCCN1C(=O)[C@@H]2CCN2C(=O)[C@H](C)N(C)C(=O)[C@H]([C@@H](C)CC)NC(=O)[C@H](CC(C)C)N(C)C(=O)C[C@@H](C(=O)N2CCOCC2)N(C)C(=O)[C@H](C2CCCC2)N(C)C(=O)C(C)(C)NC(=O)[C@@H]2CCCN2C(=O)[C@H](CCc2ccc(C(F)(F)F)c(Cl)c2)NC(=O)CN(C)C(=O)[C@@H]1Cc1ccc(C(F)(F)F)cc1 [PP0225] ([NMeL]I[NMeA][Aze][NPrPhe(4-CF3)][Sar][hPhe(3-Cl-4-CF3)]P[Aib][NMeGly(cPent)][NMeD]-Morpholide; lactam N-11) | C (A compound having a KD ratio of 0.1 or more and less than 3 is denoted as C) | C (A compound having a KD ratio of 0.1 or more and less than 3 is denoted as C) | –
